Like-named read-outs stand apart in the source and are kept apart here.
Tests used:
FGFR4 (h) = FGFR4 (h) (Homo sapiens, UniProt P22455); assay: FGFR4 (enzymatic assay), TR-FRET; assay type: biochemical; conditions: read-out: FGFR 4 pIC50 (converted)
Method: In a final reaction volume of 30 μL, FGFR4 (h) (60 ng/ml) was incubated with 50 mM HEPES pH 7.5, 6 mM MnCl2, 1 mM DTT, 0.1 mM Na3VO4, 0.01% Triton-X-100, 500 nM Btn-Flt3 and 5 μM ATP in the presence of compound (1% DMSO final). […] Time-Resolved Fluorescence Resonance Energy Transfer (TR-FRET) signal (ex340 nm. Em 620 nm, em 655 nm) was measured afterwards and results are expressed in RFU (Relative Fluorescence Units).

[1] = tested on: Ba/F3-FGFR3-transfected cells in the presence of 10 ng/ml murine IL3; assay: Ba/F3-FGFR3 (plus IL3) cellular proliferation counterscreen, Alamar Blue; assay type: cell-based; conditions: Mus musculus
Method: Ba/F3-FGFR3 (Minus IL3 or Plus IL3) (Cellular Proliferation Assay)
(§1) In a 384 well plate, 100 nl of compound dilution in DMSO was sprayed before adding 50 μl cell culture medium (phenol red free RPMI-1640, 10% FBS, 2 mM L-Glutamine and 50 μg/ml Gentamycin) containing 20000 cells per well of Ba/F3-FGFR3-transfected cells. Cells were put in an incubator at 37° C. and 5% CO2. After 24 hours, 10 μl of Alamar Blue solution (0.5 mM K3Fe(CN)6, 0.5 mM KaFe(CN)6, 0.15 mM Resazurin and 100 mM Phosphate Buffer) was added to the wells, incubated for 4 hours at 37° C. and 5% CO2 before RFU's (Relative Fluorescence Units) (ex. 540 nm., em. 590 nm.) were measured in a flurorescence plate reader.
(§2) As a counterscreen the same experiment was performed in the presence of 10 ng/ml murine IL3.
as §1, with “a 96” for “a 384”, “plate, 180” for “plate, 100 nl of compound dilution in DMSO was sprayed before adding 50”, “containing 10000” for “containing 20000”, “Ba/F3-FGFR3-transfected cells were pipette and 20 μl of compound dilution in DMSO was added.” for “Ba/F3-FGFR3-transfected cells.”, “hours, 40” for “hours, 10”

[2] = molecular target: Ba/F3-KDR-transfected cells (Homo sapiens, UniProt P35968); assay: Ba/F3-KDR (minus IL3) cellular proliferation assay, Alamar Blue; assay type: cell-based
Ba/F3-KDR-transfected cells, sequence (P35968 whole entry, change not shown): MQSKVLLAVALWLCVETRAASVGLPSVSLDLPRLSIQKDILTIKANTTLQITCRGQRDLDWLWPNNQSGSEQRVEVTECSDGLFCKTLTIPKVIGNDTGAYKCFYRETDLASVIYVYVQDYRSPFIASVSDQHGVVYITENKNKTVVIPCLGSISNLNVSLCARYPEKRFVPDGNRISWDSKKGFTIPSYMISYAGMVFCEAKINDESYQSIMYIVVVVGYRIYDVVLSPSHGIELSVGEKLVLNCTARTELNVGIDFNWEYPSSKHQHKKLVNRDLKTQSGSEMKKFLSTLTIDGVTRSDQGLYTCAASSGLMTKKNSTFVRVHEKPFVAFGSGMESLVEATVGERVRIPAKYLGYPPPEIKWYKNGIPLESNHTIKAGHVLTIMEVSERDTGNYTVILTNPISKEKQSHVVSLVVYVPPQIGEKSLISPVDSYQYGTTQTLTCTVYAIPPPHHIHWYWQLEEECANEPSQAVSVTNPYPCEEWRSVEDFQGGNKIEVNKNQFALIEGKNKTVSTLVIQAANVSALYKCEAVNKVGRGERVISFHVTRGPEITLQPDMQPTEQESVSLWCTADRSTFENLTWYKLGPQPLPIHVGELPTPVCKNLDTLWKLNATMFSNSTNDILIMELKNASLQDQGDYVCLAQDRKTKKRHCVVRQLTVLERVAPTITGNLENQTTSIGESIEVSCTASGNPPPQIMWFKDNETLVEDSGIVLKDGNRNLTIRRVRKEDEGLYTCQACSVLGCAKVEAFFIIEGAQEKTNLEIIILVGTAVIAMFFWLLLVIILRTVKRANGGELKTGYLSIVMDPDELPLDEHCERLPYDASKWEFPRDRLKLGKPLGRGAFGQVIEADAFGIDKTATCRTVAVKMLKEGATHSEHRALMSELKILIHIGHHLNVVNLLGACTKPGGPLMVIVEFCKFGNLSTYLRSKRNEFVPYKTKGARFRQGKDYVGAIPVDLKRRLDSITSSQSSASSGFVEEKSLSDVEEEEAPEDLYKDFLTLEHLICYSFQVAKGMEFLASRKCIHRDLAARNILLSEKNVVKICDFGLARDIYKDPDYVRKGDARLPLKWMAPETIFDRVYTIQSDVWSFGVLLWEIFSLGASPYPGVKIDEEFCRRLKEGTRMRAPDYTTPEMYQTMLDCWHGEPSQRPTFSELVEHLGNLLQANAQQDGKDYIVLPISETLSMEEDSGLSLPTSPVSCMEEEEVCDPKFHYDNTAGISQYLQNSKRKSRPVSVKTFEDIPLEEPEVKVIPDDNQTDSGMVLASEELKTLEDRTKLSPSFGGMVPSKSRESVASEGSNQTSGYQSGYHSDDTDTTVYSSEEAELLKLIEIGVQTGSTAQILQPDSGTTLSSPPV
Method: Ba/F3-KDR (Minus IL3 or Plus IL3) (Cellular Proliferation Assay)
as §1, with “Ba/F3-KDR-transfected” for “Ba/F3-FGFR3-transfected”
as §2
as §1, with “a 96” for “a 384”, “plate, 180” for “plate, 100 nl of compound dilution in DMSO was sprayed before adding 50”, “containing 10000” for “containing 20000”, “of Ba/F3-KDR-transfected cells were pipette and 20 μl of compound dilution in DMSO was added.” for “of Ba/F3-FGFR3-transfected cells.”, “hours, 40” for “hours, 10”, “CO2” for “CO2 before”

[3] = plus 10 ng/ml murine IL3, 384 well, read-out: BAF3-FGFR 3 (PLUS IL3) 384 well pIC50 (converted)
[4] = plus IL3, 96 well, read-out: BAF3-FGFR 3 (PLUS IL3) 96 well pIC50 (converted)

FGFR4 (h), sequence (P22455 22-802): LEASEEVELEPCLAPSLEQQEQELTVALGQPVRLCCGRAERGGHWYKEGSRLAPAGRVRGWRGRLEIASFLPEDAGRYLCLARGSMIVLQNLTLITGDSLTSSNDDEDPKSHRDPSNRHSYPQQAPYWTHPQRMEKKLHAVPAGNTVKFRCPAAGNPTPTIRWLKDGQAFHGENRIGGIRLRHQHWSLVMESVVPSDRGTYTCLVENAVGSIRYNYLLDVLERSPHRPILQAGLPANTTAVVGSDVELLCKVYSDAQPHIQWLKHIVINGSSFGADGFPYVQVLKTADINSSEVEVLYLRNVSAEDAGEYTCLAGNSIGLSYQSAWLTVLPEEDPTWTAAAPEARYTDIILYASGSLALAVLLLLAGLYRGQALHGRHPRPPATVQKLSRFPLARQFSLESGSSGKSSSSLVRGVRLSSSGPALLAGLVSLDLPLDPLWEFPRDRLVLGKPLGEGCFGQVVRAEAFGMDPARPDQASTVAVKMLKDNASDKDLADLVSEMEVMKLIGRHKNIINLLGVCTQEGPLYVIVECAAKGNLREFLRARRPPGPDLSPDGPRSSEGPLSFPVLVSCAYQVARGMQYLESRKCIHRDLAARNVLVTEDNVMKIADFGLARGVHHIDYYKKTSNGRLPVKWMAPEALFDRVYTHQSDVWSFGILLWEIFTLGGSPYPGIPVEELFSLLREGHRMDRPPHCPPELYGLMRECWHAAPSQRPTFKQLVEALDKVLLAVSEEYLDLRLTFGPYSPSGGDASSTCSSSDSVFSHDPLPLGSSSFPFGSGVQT

IC50 (FGFR4 (h)) [nM] | BAF3-KDR (MIN IL3) 384 well pIC50 ([2]; minus IL3) | BAF3-KDR (MIN IL3) 384 well pIC50 ([2]; minus IL3, 384 well) | Structure (SMILES) | IC50 [1, 3] [nM] | IC50 [1, 4] [nM] | IC50 ([1]; plus IL3, 384 well, read-out: BAF3-FGFR 3 (PLUS IL3) 384 well pIC50 (converted)) [nM]
> 10000 | <5 |  | COc1cc(OC)cc(N(CC2CC2)c2ccc3ncc(NC(=O)c4ccc(F)cc4)nc3c2)c1 [Compound 28] | > 10000 | > 10000 | 
234 | <5 |  | CO/N=C(\C)c1cnc2ccc(N(CCO)c3cc(OC)cc(OC)c3)cc2n1 [Compound 29] | > 10000 |  | 
145 | <5 |  | COc1cc(OC)cc(N(CC2CC2)c2ccc3ncc(-c4c[nH]cn4)nc3c2)c1 [Compound 39] | > 10000 | > 10000 | 
2290 |  | <5 | COc1cc(OC)cc(N(CC2CC2)c2ccc3ncc(N4CCOCC4)nc3c2)c1 [Compound 63] |  | > 10000 | > 10000
200 | 5 |  | COc1cc(OC)cc(N(CCNC(C)C)c2ccc3ncc(N4CCC(CN)CC4)nc3c2)c1 [Compound 67] | > 10000 |  | 
8.51 | 5.45 |  | COc1cc(OC)cc(N(CCN)c2ccc3ncc(-c4ccn(C)c4)nc3c2)c1 [Compound 79] | > 10000 |  | 
97.7 | <5 |  | COc1cc(OC)cc(N(CCO)c2ccc3ncc(-c4ccnc(C(=O)NCCCCCO)c4)nc3c2)c1 [Compound 139] | > 10000 |  | 
871 | <5 |  | COc1cc(OC)cc(N(CCCNCC(F)(F)F)c2ccc3ncc(-c4ccnc(Cl)c4)nc3c2)c1 [Compound 145] | > 10000 |  | 
224 | <5 |  | COc1cc(OC)cc(N(CCCNCC(F)(F)F)c2ccc3ncc(-c4ccnc(C(=O)NCCCCCO)c4)nc3c2)c1 [Compound 150] | > 10000 |  | 
95.5 | <5 |  | COc1cc(OC)cc(N(CCO)c2ccc3ncc(-c4ccc(N5CCN(C(=O)OC(C)(C)C)CC5)cc4)nc3c2)c1 [Compound 156] | > 10000 |  | 
331 | <5 |  | COc1cc(OC)cc(N(CCNC(C)C)c2ccc3ncc(NCC4CCNCC4)nc3c2)c1 [Compound 161] | > 10000 |  | 
28.8 | 5.36 |  | COc1cc(OC)cc(N(CCO)c2ccc3ncc(-c4ccc(N5CCNCC5)nc4)nc3c2)c1 [Compound 165] | > 10000 |  | 
8.32 | 5.75 |  | COc1cc(OC)cc(N(CCNC(C)C)c2ccc3ncc(-c4ccc(N5CCOCC5)nc4)nc3c2)c1 [Compound 168] | ~9330 |  | 
53.7 | 5.1 |  | COc1cc(OC)cc(N(CCN2CCOCC2)c2ccc3ncc(-c4ccc(N)nc4)nc3c2)c1 [Compound 169] | > 10000 |  | 
871 | <5 |  | COc1cc(OC)cc(N(CCO)c2ccc3ncc(/C(C)=N/OC(C)(C)C)nc3c2)c1 [Compound 171] | > 10000 |  | 
417 | <5 |  | COC(=O)C1CCCN1c1cnc2ccc(N(CCO)c3cc(OC)cc(OC)c3)cc2n1 (stereo not drawn) [Compound 172] | > 10000 |  | 
977 | <5 |  | COc1cc(OC)cc(N(CCNC(C)C)c2ccc3ncc(C(=O)N4CCCCC4)nc3c2)c1 [Compound 180] | > 10000 |  | 
603 | <5 |  | COc1cc(OC)cc(N(CCNC(C)C)c2ccc3ncc(C(=O)NCCCN4CCCCC4)nc3c2)c1 [Compound 182] | ~6920 |  | 

Further lines, the compound ahead of its results:

Structure (SMILES) | IC50 (FGFR4 (h)) [nM] | BAF3-KDR (MIN IL3) 384 well pIC50 ([2]; minus IL3) | BAF3-KDR (MIN IL3) 384 well pIC50 ([2]; minus IL3, 384 well) | IC50 [1, 3] [nM] | IC50 [1, 4] [nM] | IC50 ([1]; plus IL3, 384 well, read-out: BAF3-FGFR 3 (PLUS IL3) 384 well pIC50 (converted)) [nM]
COc1cc(OC)cc(N(CCN2CCOCC2)c2ccc3ncc(-c4ccc(NC(=O)N5CCOCC5)nc4)nc3c2)c1 [Compound 35] | 67.6 | 5.11 |  | > 10000 |  | 
COc1cc(OC)cc(N(CCN2CCN(C(C)=O)CC2)c2ccc3ncc(-c4ccc(N)nc4)nc3c2)c1 [Compound 68] | 282 | <5 |  | > 10000 |  | 
COc1cc(OC)cc(N(CCNC(C)C)c2ccc3ncc(-n4cnc(CO)c4)nc3c2)c1 [Compound 77] | 52.5 | 5.29 |  | > 10000 |  | 
CNc1ccc(-c2cnc3ccc(N(CCCNCC(F)(F)F)c4cc(OC)cc(OC)c4)cc3n2)cn1 [Compound 129] | 87.1 | <5 |  | > 10000 |  | 
COc1cc(OC)cc(N(CCCO)c2ccc3ncc(-c4ccnc(F)c4)nc3c2)c1 [Compound 142] | 64.6 | <5 |  | > 10000 |  | 
COc1cc(OC)cc(N(CCO)c2ccc3ncc(-c4ccccc4CCO)nc3c2)c1 [Compound 151] | 891 | <5 |  | > 10000 |  | 
COc1cc(OC)cc(N(CCCNCC(F)(F)F)c2ccc3ncc(C(=O)NCCN4CCOCC4)nc3c2)c1 [Compound 158] | > 1000 | <5 |  | > 10000 |  | 
COc1cc(OC)cc(N(CCNC(C)C)c2ccc3ncc(C(=O)NCCCN4CCN(C)CC4)nc3c2)c1 [Compound 159] | 490 | <5 |  | > 10000 |  | 
COc1cc(OC)cc(N(CCNC(C)C)c2ccc3ncc(C(=O)NCCN4CCOCC4)nc3c2)c1 [Compound 160] | 309 | <5 |  | > 10000 |  | 
COc1cc(OC)cc(N(CCO)c2ccc3ncc(-c4ccc(N5CCN(C)CC5)nc4)nc3c2)c1 [Compound 163] | 120 | 5.3 |  | > 10000 |  | 
COc1cc(OC)cc(N(CCO)c2ccc3ncc(-c4ccc(N5CCNCC5)cc4)nc3c2)c1 [Compound 166] | 7.24 | 5.55 |  | ~6030 |  | 
COc1cc(OC)cc(N(CCNC(C)C)c2ccc3ncc(-n4cnc(COC(C)=O)c4)nc3c2)c1 [Compound 167] | 31.6 | <5 |  | > 10000 |  | 
COc1cc(OC)cc(N(CCNC(C)C)c2ccc3ncc(-c4ccc(N5CCN(C)CC5)nc4)nc3c2)c1 [Compound 170] | 28.8 | <5 |  | 9770 |  | 
COc1cc(OC)cc(N(CCO)c2ccc3ncc(C4=CCN(C(=O)OC(C)(C)C)C4)nc3c2)c1 [Compound 173] | 100 | <5 |  | > 10000 |  | 
COc1cc(OC)cc(N(CCO)c2ccc3ncc(C4=CCN(C(=O)OC(C)(C)C)CC4)nc3c2)c1 [Compound 178] | 56.2 | <5 |  | > 10000 |  | 
COc1cc(OC)cc(N(CCNC(C)C)c2ccc3ncc(C(=O)N4CCN(C)CC4)nc3c2)c1 [Compound 179] | > 1000 | <5 |  | > 10000 |  | 
COc1cc(OC)cc(N(CCNC(C)C)c2ccc3ncc(C(=O)N4CCOCC4)nc3c2)c1 [Compound 181] | > 1000 | <5 |  | > 10000 |  | 
